From US11613522B2, “Herbicidally active 3-phenylisoxazoline-5-carboxamides of tetrahydro- and dihydrofurancarboxamides” (BAYER AKTIENGESELLSCHAFT, priority 2017, dated 2023)

Experiments:
Type in all cases: in vivo
Alopecurus myosuroides [1] = experiment: Pre-emergence herbicidal activity against ALOMY; settings: Alopecurus myosuroides, 504 h, dosage 80 g/ha, scored visually after about 3 weeks vs untreated controls
Outline: (§1)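 Seeds sown in pots and covered with soil; compounds formulated as WP or EC applied to the soil surface as aqueous suspension or emulsion with 0.5% additive at 600 l/ha water. Pots held in greenhouse; activity scored visually about 3 weeks later as % versus untreated controls (100% = dead).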

Avena fatua [2] = experiment: Pre-emergence herbicidal activity against AVEFA; settings: Avena fatua, 504 h, dosage 80 g/ha, scored visually after about 3 weeks vs untreated controls, read-out: Pre-emergence herbicidal activity in % against AVEVA (AVEFA)
Outline: as §1

Echinochloa crus-galli [3] = experiment: Pre-emergence herbicidal activity against ECHCG; settings: Echinochloa crus-galli, 504 h, dosage 80 g/ha, scored visually after about 3 weeks vs untreated controls
Outline: as §1

Lolium rigidum [4] = experiment: Pre-emergence herbicidal activity against LOLRI; settings: Lolium rigidum, 504 h, dosage 80 g/ha, scored visually after about 3 weeks vs untreated controls
Outline: as §1

Setaria viridis [5] = experiment: Pre-emergence herbicidal activity against SETVI; settings: Setaria viridis, 504 h, dosage 80 g/ha, scored visually after about 3 weeks vs untreated controls
Outline: as §1

Amaranthus retroflexus [6] = experiment: Pre-emergence herbicidal activity against AMARE; settings: Amaranthus retroflexus, 504 h, dosage 80 g/ha, scored visually after about 3 weeks vs untreated controls
Outline: as §1

Pharbitis purpurea [7] = experiment: Pre-emergence herbicidal activity against PHBPU; settings: dosage 80 g/ha, scored visually after about 3 weeks vs untreated controls
Excerpt: (§2) 1. Pre-emergence herbicidal action against harmful plants and crop plant compatibility Seeds of monocotyledonous and dicotyledonous weed plants and crop plants are placed in plastic or wood fiber pots and covered with soil. The compounds of the invention, formulated in the form of wettable powders (WP) or as emulsion concentrates (EC), are then applied onto the surface of the covering soil as aqueous suspension or emulsion with addition of 0.5% additive at a water application rate of 600 l/ha (converted). After the treatment, the pots are placed in a greenhouse and kept under good growth conditions for the trial plants. After about 3 weeks, the effect of the preparations is scored visually in comparison with untreated controls as percentages. For example, 100% activity=the plants have died, 0% activity=like control plants. [table]

Polygonum convolvulus [8] = experiment: Pre-emergence herbicidal activity against POLCO; settings: Fallopia convolvulus, 504 h, dosage 80 g/ha, scored visually after about 3 weeks vs untreated controls
Outline: as §1

Stellaria media [9] = experiment: Pre-emergence herbicidal activity against STEME; settings: Stellaria media, 504 h, dosage 80 g/ha, scored visually after about 3 weeks vs untreated controls
Outline: as §1

Viola tricolor [10] = experiment: Pre-emergence herbicidal activity against VIOTR; settings: Viola tricolor, 504 h, dosage 80 g/ha, scored visually after about 3 weeks vs untreated controls
Outline: as §1

Veronica persica [11] = experiment: Pre-emergence herbicidal activity against VERPE; settings: Veronica persica, 504 h, dosage 80 g/ha
Outline: as §1

Hordeum murinum [12] = experiment: Pre-emergence herbicidal activity against HORMU; settings: Hordeum murinum, 504 h, dosage 80 g/ha
Outline: as §1

Alopecurus myosuroides [13] = experiment: Post-emergence herbicidal activity against ALOMY; settings: Alopecurus myosuroides, 504 h, dosage 320 g/ha, rated visually after about 3 weeks
Outline: (§3)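 Weeds grown in sandy loam in greenhouse, treated at one-leaf stage (2–3 weeks after sowing) by spraying WP or EC formulations as aqueous suspension/emulsion with 0.5% additive at 600 l/ha. Activity rated visually about 3 weeks later versus untreated controls (100% = plants dead, 0% = like control).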

Avena fatua [14] = experiment: Post-emergence herbicidal activity against AVEFA; settings: Avena fatua, 504 h, dosage 320 g/ha, rated visually after about 3 weeks
Outline: as §3

Echinochloa crus-galli [15] = experiment: Post-emergence herbicidal activity against ECHCG; settings: Echinochloa crus-galli, 504 h, dosage 320 g/ha, rated visually after about 3 weeks
Outline: as §3

Lolium rigidum [16] = experiment: Post-emergence herbicidal activity against LOLRI; settings: Lolium rigidum, 504 h, dosage 320 g/ha, rated visually after about 3 weeks
Outline: as §3

Abutilon theophrasti = experiment: Post-emergence herbicidal activity against ABUTH; settings: Abutilon theophrasti, 504 h, dosage 320 g/ha, rated visually after about 3 weeks
Outline: as §3

Amaranthus retroflexus [17] = experiment: Post-emergence herbicidal activity against AMARE; settings: Amaranthus retroflexus, 504 h, dosage 320 g/ha, rated visually after about 3 weeks
Outline: as §3

Pharbitis purpurea [18] = experiment: Post-emergence herbicidal activity against PHBPU; settings: Ipomoea purpurea, 504 h, dosage 320 g/ha, rated visually after about 3 weeks
Outline: as §3

Polygonum convolvulus [19] = experiment: Post-emergence herbicidal activity against POLCO; settings: Fallopia convolvulus, 504 h, dosage 320 g/ha, rated visually after about 3 weeks
Outline: as §3

Stellaria media [20] = experiment: Post-emergence herbicidal activity against STEME; settings: Stellaria media, 504 h, dosage 320 g/ha, rated visually after about 3 weeks
Outline: as §3

Viola tricolor [21] = experiment: Post-emergence herbicidal activity against VIOTR; settings: Viola tricolor, 504 h, dosage 320 g/ha, rated visually after about 3 weeks
Outline: as §3

Veronica persica [22] = experiment: Post-emergence herbicidal activity against VERPE; settings: Veronica persica, 504 h, dosage 320 g/ha, rated visually after about 3 weeks
Outline: as §3

Hordeum murinum [23] = experiment: Post-emergence herbicidal activity against HORMU; settings: Hordeum murinum, 504 h, dosage 320 g/ha, rated visually after about 3 weeks
Outline: as §3

[24] = Pre-emergence herbicidal action against harmful plants (summary of the tables); settings: 504 h, application rate of 0.08 kg of active substance or less per hectare, read-out: herbicidal action, pre-emergence treatment (very good activity)
Excerpt: as §2, with “plants.” for “plants. [table]”
As shown by the results, compounds according to the invention such as, for example, the compounds No. I-02 and other compounds from the tables (I-05, I-10, I-11, I-12, I-13, I-14, I-15, I-16, I-17, I-18, I-19, I-20, I-21, I-22, I-23, I-24, I-25, I-26, I-27, I-28, I-29) have, when used for pre-emergence treatment, very good activity (80% to 100% herbicidal action) against harmful plants such as Abutilon theophrasti, Alopecurus myosuroides, Amaranthus retroflexus, Avena fatua, Cyperus esculentus, Echinochloa crus-galli, Hordeum murinum, Lolium rigidum, Pharbitis purpurea, Polygonum convolvulus, Setaria viridis, Stellaria media, Veronica persica and Viola tricolor at an application rate of 0.08 kg of active substance or less per hectare.

Setaria viridis [25] = experiment: Post-emergence herbicidal activity against SETVI; settings: Setaria viridis, 504 h, dosage 320 g/ha, rated visually after about 3 weeks
Outline: as §3

SMILES | pest or weed control at 80 g/ha (Alopecurus myosuroides [1]) [%] | pest or weed control at 80 g/ha (Avena fatua [2]) [%] | pest or weed control at 80 g/ha (Echinochloa crus-galli [3]) [%] | pest or weed control at 80 g/ha (Lolium rigidum [4]) [%] | pest or weed control at 80 g/ha (Setaria viridis [5]) [%] | pest or weed control at 80 g/ha (Amaranthus retroflexus [6]) [%] | Pre-emergence herbicidal activity in % against PHBPU (Pharbitis purpurea [7]) [%] | pest or weed control at 80 g/ha (Polygonum convolvulus [8]) [%] | pest or weed control at 80 g/ha (Stellaria media [9]) [%] | pest or weed control at 80 g/ha (Viola tricolor [10]) [%] | pest or weed control at 80 g/ha (Veronica persica [11]) [%] | pest or weed control at 80 g/ha (Hordeum murinum [12]) [%] | pest or weed control at 320 g/ha (Alopecurus myosuroides [13]) [%] | pest or weed control at 320 g/ha (Avena fatua [14]) [%] | pest or weed control at 320 g/ha (Echinochloa crus-galli [15]) [%] | pest or weed control at 320 g/ha (Lolium rigidum [16]) [%] | pest or weed control at 320 g/ha (Abutilon theophrasti) [%] | pest or weed control at 320 g/ha (Amaranthus retroflexus [17]) [%] | pest or weed control at 320 g/ha (Pharbitis purpurea [18]) [%] | pest or weed control at 320 g/ha (Polygonum convolvulus [19]) [%] | also measured
C=C[C@]1(C(=O)N[C@@H]2CO[C@H](C(=O)NS(=O)(=O)C(F)(F)F)C2)CC(c2cc(F)cc(F)c2)=NO1 (mixture of isomers) [Example I-14, (5S)-3-(3,5-difluorophenyl)-N-[cis-5-(trifluoromethylsulfonylcarbamoyl)tetrahydrofuran-3-yl]-5-vinyl-4H-isoxazole-5-carboxamide] | 100 | 90 | 100 | 100 | 100 | 100 | 90 | 100 | 90 | 100 | 90 | 90 | 90 | 80 | 80 | 90 | 90 | 80 | 80 | 80 | pest or weed control at 320 g/ha (Stellaria media [20]): 90%; pest or weed control at 320 g/ha (Viola tricolor [21]): 100%; pest or weed control at 320 g/ha (Veronica persica [22]): 90%; pest or weed control at 320 g/ha (Hordeum murinum [23]): 80%; pest or weed control at 80 g/ha [24]: 80 to 100%
C=C[C@]1(C(=O)N[C@@H]2CO[C@H](C(=O)NC3CC3)C2)CC(c2cc(F)cc(F)c2)=NO1 (mixture of isomers) [Example I-18, (5S)—N-[cis-5-(cyclopropylcarbamoyl)tetrahydrofuran-3-yl]-3-(3,5-difluorophenyl)-5-vinyl-4H-isoxazole-5-carboxamide] | 100 | 90 | 90 | 100 | 100 | 100 | 90 | 100 | 100 | 100 | 90 | 100 | 90 | 90 | 90 | 90 | 90 | 90 | 90 | 90 | pest or weed control at 320 g/ha (Setaria viridis [25]): 90%; pest or weed control at 320 g/ha (Stellaria media [20]): 90%; pest or weed control at 320 g/ha (Viola tricolor [21]): 80%; pest or weed control at 320 g/ha (Veronica persica [22]): 80%; pest or weed control at 320 g/ha (Hordeum murinum [23]): 90%; pest or weed control at 80 g/ha [24]: 80 to 100%
